Source: patent US10376520B2, “Methods for the treatment of cardiovascular disorders” (Galapagos NV, priority 2015, dated 2019)

System: RA patients
Test: Disease Activity Score 28 (DAS28(CRP)), Study 1
Assay type: in vivo, human
Description: As used herein, the term ‘DAS28(CRP)’ refers to a clinical scoring ranging from 2.0 to 10.0 to measure the disease status at a given point in time, and thereby follow the progress and improvement of rheumatoid arthritis in a patient, and includes a 28 tender and swollen joint count, CRP measurement from blood analysis, and a general health assessment on a visual analog scale. A DAS28(CRP) value below 2.6 is indicative of remission, A DAS28(CRP) between 2.6 and 3.2 is indicative of low disease activity, between 3.2 and 5.1 is indicative of moderate disease activity, whereas a DAS28(CRP) above 5.1 is linked to high disease activity. (Wells et al., 2008)
Double-blind, placebo-controlled add on study in subjects with moderately to severely active RA who have an inadequate response to methotrexate (MTX) (oral or parenteral).
Compound 1 (dosed as a [Compound 1:HCl:3H2O]) is dosed for twelve weeks once daily (q.d.) (50 mg, 100 mg or 200 mg) or twice daily (b.i.d.) (25 mg, 50 mg or 100 mg); or placebo.
At Week 12, the subjects on placebo who have not achieved 20% improvement in swollen joint count (SJC66) and tender joint count (TJC68) are re-randomized automatically to receive Compound 1 (dosed as a [Compound 1:HCl:3H2O]) either at 100 mg q.d. or 50 mg b.i.d. doses in a blinded fashion; subjects on 50 mg q.d. who have not achieved 20% improvement in SJC66 and TJC68 will be assigned to 100 mg q.d. and subjects on 25 mg b.i.d. that have not achieved a 20% improvement in SJC66 and TJC68 will be assigned to 50 mg b.i.d. Subjects who switch treatment at week 12 are handled as if they discontinued at week 12 for the purpose of statistical analysis, whereas subjects in the other groups will maintain their randomized treatment until Week 24.
The (DAS28(CRP)) is a system developed and validated by the European League Against Rheumatism (EULAR) to measure the progress and improvement of rheumatoid arthritis and has been extensively validated (Wells et al., 2008). The DAS28(CRP) scoring includes a 28 tender and swollen joint count, CRP measurement from blood analysis, and a general health assessment on a visual analog scale (Fransen et al., 2003).
DAS28(CRP) values range from 2.0 to 10.0, and more particularly reflect the following status: • Remission: DAS28(CRP)≤2.6 • Low Disease activity: 2.6<DAS28(CRP)≤3.2 • Moderate Disease Activity: 3.2<DAS28(CRP)≤5.1 • High Disease Activity: DAS28(CRP)>5.1
In practice, the DAS28(CRP) measurement involves the evaluation 28 different joints including in the measurement (proximal interphalangeal joints (10 joints), metacarpophalangeal joints (10), wrists (2), elbows (2), shoulders (2), and knees (2)). When looking at these joints, both the number of joints with tenderness upon touching and swelling are counted.
Firstly, the patient is asked to make a vertical mark on a 100 mm Visual Analog Scale (VAS) corresponding to their general health or global disease activity. Using an electronic touchscreen, the mark is measured from the left-hand side in mm to obtain the VAS value, which is used in the formula below.
Secondly, a swollen and tender joint examination is then performed on the patient. The swollen and tender joints are recorded. From this examination are obtained the total amount of swollen joints (SJC) and the total amount of tender joints (TJC), which are used in the formula below.
Thirdly, C-reactive protein (CRP) levels (in mg/dL) are measured.
Finally, the values obtained above (VAS, JTC28, SJC28, and CRP) are computed into the following Formula to obtain the DAS28(CRP) score.
The number of subjects (N) provided in each groups corresponds to the number of patients starting the study in each group, and the DAS28 (CRP) data reported below corresponds to the responding patients continuing for the entire 24 weeks on their initial treatment course.

O=C(Nc1nc2cccc(-c3ccc(CN4CCS(=O)(=O)CC4)cc3)n2n1)C1CC1 [Compound 1, cyclopropanecarboxylic acid {5-[4-(1,1-dioxo-thiomorpholin-4-ylmethyl)-phenyl]-[1,2,4]triazolo[1,5-a]pyridin-2yl}-amide]
DAS28(CRP) mean CFB (LOCF) - 24 weeks results (50 mg q.d., Week 24): −1.98 | DAS28(CRP) mean CFB (LOCF) - 12 weeks results (50 mg q.d., week 1): −0.65 | DAS28(CRP) mean CFB (LOCF) - 24 weeks results (50 mg q.d., week 1): −0.65 | DAS28(CRP) mean CFB (LOCF) - 12 weeks results (50 mg q.d., week 2): −0.94 | DAS28(CRP) mean CFB (LOCF) - 24 weeks results (50 mg q.d., week 2): −0.94 | DAS28(CRP) mean CFB (LOCF) - 24 weeks results (50 mg q.d., week 4): −1.28 | DAS28(CRP) mean CFB (LOCF) - 12 weeks results (50 mg q.d., week 12): −1.75 | DAS28(CRP) mean CFB (LOCF) - 24 weeks results (50 mg q.d., week 12): −1.75 | DAS28(CRP) mean CFB (LOCF) - 24 weeks results (100 mg q.d., week 1): −1.00 | DAS28(CRP) mean CFB (LOCF) - 12 weeks results (100 mg q.d., week 2): −1.50 | DAS28(CRP) mean CFB (LOCF) - 24 weeks results (100 mg q.d., week 16): −2.51 | DAS28(CRP) mean CFB (LOCF) - 24 weeks results (100 mg q.d., week 24): −2.70 | % patients reaching low disease activity and/or remission at week 24 (LOCF) (200 mg q.d.): 52% | DAS28(CRP) mean CFB (LOCF) - 24 weeks results (200 mg q.d., week 1): −1.17 | DAS28(CRP) mean CFB (LOCF) - 24 weeks results (200 mg q.d., week 2): −1.52 | DAS28(CRP) mean CFB (LOCF) - 12 weeks results (200 mg q.d., week 8): −2.30 | DAS28(CRP) mean CFB (LOCF) - 24 weeks results (200 mg q.d., week 16): −2.70 | DAS28(CRP) mean CFB (LOCF) - 24 weeks results (200 mg q.d., week 24): −2.80 | % patients reaching low disease activity and/or remission at week 24 (LOCF) (2 × 25 mg b.i.d.): 49% | DAS28(CRP) mean CFB (LOCF) - 12 weeks results (2 × 25 mg b.i.d., Week 1): −0.68 | DAS28(CRP) mean CFB (LOCF) - 24 weeks results (2 × 25 mg b.i.d., Week 1): −0.68 | DAS28(CRP) mean CFB (LOCF) - 12 weeks results (2 × 25 mg b.i.d., Week 4): −1.45 | DAS28(CRP) mean CFB (LOCF) - 24 weeks results (2 × 25 mg b.i.d., Week 4): −1.45 | DAS28(CRP) mean CFB (LOCF) - 12 weeks results (2 × 25 mg b.i.d., Week 8): −1.82 | DAS28(CRP) mean CFB (LOCF) - 24 weeks results (2 × 25 mg b.i.d., Week 8): −1.82 | DAS28(CRP) mean CFB (LOCF) - 12 weeks results (2 × 50 mg b.i.d., Week 1): −0.84 | DAS28(CRP) mean CFB (LOCF) - 24 weeks results (2 × 50 mg b.i.d., Week 1): −0.84 | DAS28(CRP) mean CFB (LOCF) - 12 weeks results (2 × 50 mg b.i.d., Week 12): −2.10 | DAS28(CRP) mean CFB (LOCF) - 24 weeks results (2 × 50 mg b.i.d., Week 12): −2.10 | DAS28(CRP) mean CFB (LOCF) - 24 weeks results (2 × 50 mg b.i.d., Week 20): −2.40 | DAS28(CRP) mean CFB (LOCF) - 24 weeks results (2 × 50 mg b.i.d., Week 24): −2.40 | DAS28(CRP) mean CFB (LOCF) - 12 weeks results (2 × 100 mg b.i.d., Week 8): −2.72 | DAS28(CRP) mean CFB (LOCF) - 24 weeks results (2 × 100 mg b.i.d., Week 8): −2.72
